Reference: patent US20090012130A1, “Strategies for Designing Drugs that Target the Sir2 Family of Enzymes” (priority 2005, published 2009)
“Also recorded” adds a separate entry of the source.

Key:
Sir2Tm wild type [1] = biological target: T1, Sir2Tm wild type (Thermotoga maritima, UniProt Q9WYW0); assay type: biochemical; parameters: made in house; host or cells: E. coli
Procedure: (§1) The deacetylation activity was measured using the Fluor de Lys-SirT1 assay (Biomol), using a peptide containing amino acids 379-RHK-K(Ac)-382 of p53 as substrate. […] The reactions were carried out at 37° C. in a 50 μL reaction volume containing 50 mM Tris, pH 8, 50 mM NaCl and 400 μM fluorolabeled peptide (˜10 times KM). […] Reactions were done at least in triplicate. The data were fitted to the Michaelis-Menten equation using SigmaPlot to obtain the kinetic constants. […] The data were fitted to equation (1) using SigmaPlot (SYSTAT) to calculate the IC50 values:
(§2) vI=v0(1−(I/(IC50+I))) Equation (1)
(§3) where v0 is the initial rate of the uninhibited reaction and vI is the initial rate of the reaction at concentration I of inhibitor.

Sir2Tm-D101N mutant [2] = biological target: T2, Sir2Tm-D101N mutant (Thermotoga maritima, UniProt Q9WYW0, D101N); experiment: biochemical; assay type: biochemical; parameters: made in house; host or cells: E. coli; conditions: for apparent kcat of cosubstrate-dependent deacetylation / Km / IC50: Sir2Tm-D101N mutant; for Km: 400 μM fluorolabeled peptide, read-out: apparent KM for cosubstrate; for IC50: fluorolabeled p53 peptide, 37° C.
Procedure: as §1, §2, §3

Sir2Tm wild type [3] = biological target: T1, Sir2Tm wild type; conditions: 0.1 mM ^14C-labelled base, 2 mM NAD^+, 500 μM acetylated p53 peptide, 37° C., 3 hours
Procedure: (§4) After incubation at 37° C. for 3 hours, 8 μL of each reaction was spotted on a Polygram SIL-G TLC plate (Machevey-Nagel, 20×20). The plate was developed in a pre equilibrated chamber with 80:20 ethanol:2.5 M ammonium acetate. After chromatography, the plate was air dried and exposed to a phosphorimaging screen overnight.

Sir2Tm-D101N mutant [4] = biological target: T2, Sir2Tm-D101N mutant; conditions: Sir2Tm-D101N mutant 2.5 mg/mL; 0.1 mM ^14C-labelled base, 2 mM NAD^+, 500 μM acetylated p53 peptide, 37° C., 3 hours
Procedure: as §4

T2 sequence (Q9WYW0 whole entry D101N): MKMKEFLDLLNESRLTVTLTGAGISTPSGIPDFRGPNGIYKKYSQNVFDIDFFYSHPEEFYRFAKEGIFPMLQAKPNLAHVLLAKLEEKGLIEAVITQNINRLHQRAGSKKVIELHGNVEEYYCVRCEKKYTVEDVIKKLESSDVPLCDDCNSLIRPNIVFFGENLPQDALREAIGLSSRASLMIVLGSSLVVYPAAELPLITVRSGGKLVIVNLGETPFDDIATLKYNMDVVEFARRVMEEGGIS
T1 sequence (Q9WYW0 whole entry, the tested form may be a part): as the sequence (Q9WYW0 whole entry D101N) above, with N101D counted along it

SMILES	apparent kcat of cosubstrate-dependent deacetylation (Sir2Tm-D101N mutant [2])	Km (Sir2Tm-D101N mutant [2])	base exchange activity (formation of labelled dinucleotide) (Sir2Tm wild type [3])	base exchange activity (formation of labelled dinucleotide) (Sir2Tm-D101N mutant [4])	also measured
Nc1ncnc2c1ncn2[C@@H]1O[C@H](COP(=O)(O)OP(=O)(O)OC[C@H]2O[C@@H]([n+]3cccc(C(=O)O)c3)[C@H](O)[C@@H]2O)[C@@H](O)[C@H]1O [NAAD, nicotinic acid adenine dinucleotide]	(1.1±0.1)×10^−3 s^−1	617 ± 43 µM			deacetylation activity with the dinucleotide as cosubstrate (Sir2Tm wild type [1]; up to 2.56 mg/ml enzyme, incubation 4 hours): no detectable deacetylation activity; also recorded: undetectable
NC(=O)c1ccc[n+]([C@@H]2O[C@H](COP(=O)([O-])OP(=O)(O)OC[C@H]3O[C@@H](n4cnc5c(N)ncnc54)[C@H](O)[C@@H]3O)[C@@H](O)[C@H]2O)c1 [NAD^+, nicotinamide adenine dinucleotide]	(1.8±0.1)×10^−3 s^−1	1170 ± 180 µM			kcat of cosubstrate-dependent deacetylation (Sir2Tm wild type [1]): 0.170 ± 0.006 s⁻¹; Km (Sir2Tm wild type [1]; 400 μM fluorolabeled peptide, read-out: KM for cosubstrate): 53 ± 11 µM; fold increase of KM, D101N mutant versus wild type (Sir2Tm-D101N mutant [2]; Sir2Tm-D101N versus wild type Sir2Tm): 22 fold
NC(=O)c1cccnc1 [nicotinamide]			could catalyze formation of labeled NAD^+	could catalyze formation of labeled NAD^+	
O=C(O)c1cccnc1 [nicotinic acid]			cannot do; also recorded: no detectable formation of NAAD	able to synthesize ^14C-labelled NAAD	inhibition of wild type enzyme deacetylation activity (Sir2Tm wild type [1]; inhibitor added to concentrations of up to 100 mM): fail to inhibit; IC50 (Sir2Tm-D101N mutant [2]; IC50, inhibition of NAAD-dependent deacetylation activity, 2 mM NAAD): 6.2 ± 2 mM; IC50 (Sir2Tm-D101N mutant [2]; IC50, inhibition of NAD^+-dependent deacetylation activity, 2 mM NAD^+): 11.3 ± 3.3 mM
